Test results reported in patent US12427142B2, “Combination comprising alpelisib and 6-(2,4-dichlorophenyl)-5-[4-[(3S)-1-(3-fluoropropyl)pyrrolidin-3-yl[oxyphenyl]-8,9-dihydro-7H-benzo[7]annulene-2-carboxylic acid” (Sanofi, priority 2020, dated 2025).
Read-outs that look alike come from different tables or passages of the source.

Assays:
[1] = tested on: MCF7-Y537S human breast cancer cell line xenograft; conditions: experiment 1, compound (1) 20 mg/kg BID, alpelisib 25 mg/kg QD; for Tumor volume changes from baseline, Median: PO; for Median % of regressions on day 22 / ΔT/ΔC in % at day 22 / Regressions Complete / Regressions Partial: PO days 0 to 22; for Regressions Complete / Regressions Partial: animals/group; for Anti-tumor effect on tumor growth (in words) / Biological Interpretation: day 22
Experimental: In the present study, the anti-tumor efficacy of 6-(2,4-dichlorophenyl)-5-[4-[(3S)-1-(3-fluoropropyl)pyrrolidin-3-yl]oxyphenyl]-8,9-dihydro-7H-benzo[7]annulene-2-carboxylic acid (“compound (1)”), combined with alpha-specific phosphoinositide 3-kinase (PI3K) inhibitor alpelisib, was investigated after 22 day treatment against a subcutaneous MCF7-Y537S human breast cancer cell line xenograft in female nude mice.
The treated groups included compound (1) at 20 mg/kg alone, alpelisib at 25 mg/kg alone, and the combination of compound (1) and alpelisib at the same dose and regime.
Compound (1) was orally dosed twice a day (BID) and alpelisib was orally dosed once a day (QD) for 22 days. Anti-tumor efficacy was evaluated by tumor volume measurement.
Female BALB/c nude mice were obtained from Shanghai Sino-British SIPPR/BK Laboratory Animal Co., LTD (Shanghai, CHINA). Animals were allowed to acclimate for at least four days before the study enrollment. Mice were 6 to 8 weeks old and weighed between 18 and 24 grams at the beginning of the treatments. These animals were housed under conditions outlined in the guidelines approved by the Institutional Animal Care and Use Committee (IACUC) of WuXi AppTec following the guidance of the Association for Assessment and Accreditation of Laboratory Animal Care (AAALAC).
Parental MCF7 cells were obtained from the American Type Culture Collection (ATCC® HTB-22™). MCF7-Y537S (ESR1) cell line was MCF7 cells expressing the ER.Y537S variant that was generated by Sanofi Biology Discovery Group. Y537S mutation was introduced in ESR1 construct (GenBank NM_000125.3) by site directed mutagenesis (Toy W. et al., Cancer Discovery, 2017, 7, 277-287). The construct was transfected in MCF7 cells which were selected for their growth in absence of estradiol. MCF-Y537S is an ESR1 mutation that confers estrogen-independent activity to ERα (Estrogen Receptor alpha) and contributes to endocrine resistant disease (Robinson D. R. et al., Nat Genet., 2013, 45 (12), 1446-1451). The cells were grown in Eagle's Minimum Essential Medium (EMEM) supplemented with 10% fetal bovine serum (FBS), human Insulin, in 5% CO2 at 37° C. The cells were harvested in 0.25% Trypsin EDTA and washed by Phosphate Buffered Saline (PBS) and re-suspended in PBS with 75% Matrigel. The cells (20×10^6 cells/per mouse) were subcutaneously (SC) implanted into the right flank of female nude mice.
When the MCF7-Y537S tumors were established, the tumors were reserved as tumor stocks for fragment implantation. The tumors were serially propagated through fragment tissue transplantation subcutaneously. The fragment tumor tissues were subcutaneously implanted into the right flank of female nude mice. 28 mice were assigned in this experiment.
Alpelisib (commercially available, marketed under the tradename PIQRAY®) was formulated in 100% of HPMC (hydroxypropyl-methylcellulose)/TWEEN80 0.5/0.1% in water. Compound (1) was prepared in 5% Solutol HS15 (purchased from Sigma) at pH 3.0.
Dose volume for compound (1) and alpelisib for oral administration: 10 ml/kg by oral gavage.
Doses: compound (1) at 20 mg/kg and alpelisib at 25 mg/kg in the above volume.
The animals required for experiment (plus extra) were pooled and implanted with MCF7-Y537S tumor fragment tissues. […] Treatments of compound (1) and alpelisib were initiated on day 0. Compound (1) was orally administered at 20 mg/kg BID (8 hours apart) and alpelisib was orally administered at 25 mg/kg QD, for 22 days. Animal body weight was assessed daily.
The dosages are expressed in mg/kg and based on daily body weight per animal. Vehicle treated animals were used as controls. Mice were checked daily for adverse clinical reactions. Individual mice were weighed daily until the end of the experiment.

[2] = tested on: MCF7-Y537S human breast cancer cell line xenograft; format: in vivo; conditions: experiment 2, compound (1) 10 mg/kg BID, alpelisib 25 mg/kg QD; for Tumor volume changes from baseline, Median: PO; for Median % of regressions on day 28 / ΔT/ΔC in % at day 28 / Regressions Complete / Regressions Partial: PO days 0 to 28; for Regressions Complete / Regressions Partial: animals/group; for Anti-tumor effect on tumor growth (in words) / Biological Interpretation: day 28

| SMILES | Tumor volume changes from baseline, Median ([1]; Day 4) | Tumor volume changes from baseline, Median ([1]; Day 8) | Tumor volume changes from baseline, Median ([1]; Day 11) | Tumor volume changes from baseline, Median ([1]; Day 15) | Tumor volume changes from baseline, Median ([1]; Day 18) | Tumor volume changes from baseline, Median ([1]; Day 22) | Median % of regressions on day 22 [1] | ΔT/ΔC in % at day 22 [1] | Regressions Complete [1] | Regressions Partial [1] | Anti-tumor effect on tumor growth (in words) [1] | Biological Interpretation [1] | Tumor volume changes from baseline, Median ([2]; Day 3) | Tumor volume changes from baseline, Median ([2]; Day 7) | Tumor volume changes from baseline, Median ([2]; Day 10) | Tumor volume changes from baseline, Median ([2]; Day 14) | Tumor volume changes from baseline, Median ([2]; Day 17) | Tumor volume changes from baseline, Median ([2]; Day 21) | Tumor volume changes from baseline, Median ([2]; Day 24) | Tumor volume changes from baseline, Median ([2]; Day 28) | also measured |
| --- | --- | --- | --- | --- | --- | --- | --- | --- | --- | --- | --- | --- | --- | --- | --- | --- | --- | --- | --- | --- | --- |
| Cc1nc(NC(=O)N2CCC[C@H]2C(N)=O)sc1-c1ccnc(C(C)(C)C(F)(F)F)c1 [Alpelisib] | 68.0 mm^3 | 102.0 mm^3 | 163.0 mm^3 | 262.0 mm^3 | 315.0 mm^3 | 491.0 mm^3 | 0% | 46% | 0/7 | 0/7 | did not induce statistically significant anti-tumor efficacy | Inactive | 7.0 mm^3 | −9.0 mm^3 | −17.0 mm^3 | 44.0 mm^3 | 121.5 mm^3 | 211.0 mm^3 | 245.5 mm^3 | 299.5 mm^3 | Body weight loss ([2]; 28 days): no significant body weight loss; Tolerability ([2]; 28 days): well tolerated; Median % of regressions on day 28 [2]: 0%; ΔT/ΔC in % at day 28 [2]: 66%; Regressions Complete [2]: 0/8; Regressions Partial [2]: 0/8; Anti-tumor effect on tumor growth (in words) [2]: statistically significant anti-tumor efficacy; Biological Interpretation [2]: inactive |
| O=C(O)c1ccc2c(c1)CCCC(c1ccc(Cl)cc1Cl)=C2c1ccc(O[C@H]2CCN(CCCF)C2)cc1 [Compound (1), 6-(2,4-dichlorophenyl)-5-[4-[(3S)-1-(3-fluoropropyl)pyrrolidin-3-yl]oxyphenyl]-8,9-dihydro-7H-benzo[7]annulene-2-carboxylic acid] | 43.0 mm^3 | 121.0 mm^3 | 214.0 mm^3 | 360.0 mm^3 | 392.0 mm^3 | 501.0 mm^3 | 0% | 47% | 0/7 | 0/7 | no statistically significant anti-tumor effect | Inactive | 9.0 mm^3 | 36.0 mm^3 | 48.0 mm^3 | 62.5 mm^3 | 92.0 mm^3 | 167.5 mm^3 | 189.5 mm^3 | 166.5 mm^3 | Unscheduled death (Day of death) ([1]; PO for 22 days, deaths/animals): 0/7; Median % of regressions on day 28 [2]: 0%; ΔT/ΔC in % at day 28 [2]: 37%; Regressions Complete [2]: 0/8; Regressions Partial [2]: 0/8; Unscheduled death (Day of death) ([2]; PO for 28 days, deaths/animals): 0/8; Anti-tumor effect on tumor growth (in words) [2]: statistically significant anti-tumor effect; Biological Interpretation [2]: active |
